22 molecules from US7125990B2, “Imidazolyl derivatives as corticotropin releasing factor inhibitors” (Bristol-Myers Squibb COmpany, priority 2001, dated 2006) can be followed below.

The target of this test is T1, CRF1 receptors (Homo sapiens, UniProt P34998).
T1 construct: endogenous in cells; host or cells: IMR-32 cells, transformed with 2.5 µM 5'-bromo-2'-deoxyuridine for 10 days; membrane preparation
T1 sequence (P34998 24-415): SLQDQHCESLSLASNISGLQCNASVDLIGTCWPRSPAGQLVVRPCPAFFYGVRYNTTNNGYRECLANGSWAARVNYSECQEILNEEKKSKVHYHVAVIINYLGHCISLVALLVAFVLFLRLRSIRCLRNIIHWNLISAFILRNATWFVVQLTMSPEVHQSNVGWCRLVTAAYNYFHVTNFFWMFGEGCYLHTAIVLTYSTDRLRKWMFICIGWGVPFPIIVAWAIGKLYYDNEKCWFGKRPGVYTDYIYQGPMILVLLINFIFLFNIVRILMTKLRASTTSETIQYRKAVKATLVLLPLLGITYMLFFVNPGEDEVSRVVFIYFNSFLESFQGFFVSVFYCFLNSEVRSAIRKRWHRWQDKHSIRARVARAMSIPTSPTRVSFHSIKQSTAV
The experiment in a line: CRF1 receptor radioligand binding assay ([125I]-oCRF competition, IMR-32 cell membranes). As to conditions: IMR-32 cell membranes, [125I]-oCRF 100 pM; read-out: Ki (CRF-1R). The gist of the method: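 Buffer: Tris pH 7.2 with MgCl2, BSA, Triton X-100, aprotinin, leupeptin; reaction stopped with ice-cold wash and filtered. Nonspecific binding set with 10 μM oCRF.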

Turning to `Cc1cc(C)c(-n2c(Cl)cn3c(CN(Cc4ccc(F)cc4)CC(F)(F)F)c(C(F)(F)F)nc23)c(C)c1` [Example 332], the Ki is below 1 µM.

As for `CCc1nc2n(-c3c(C)cc(C)cc3C)c(Cl)cn2c1C(=O)N(CC)CC` [Example 293, 6-Chloro-2-ethyl-7-(2,4,6-trimethylphenyl)-7H-imidazo[1,2-a]imidazole-3-carboxylic acid N,N-diethylamide], the Ki was below 1 µM.

`CCCN(CCOC)Cc1c(C(F)(F)F)nc2n(-c3c(C)cc(C)cc3C)c(Cl)cn12` [Example 342, [6-Chloro-2-trifluoromethyl-7-(2,4,6-trimethyl-phenyl)-7H-imidazo[1,2-a]imidazol-3-ylmethyl]-(2-methoxy-ethyl)-propyl-amine]: the Ki was below 0.1 µM.

As to `C=CCN(CC=C)C(=O)c1c(CC)nc2n(-c3c(C)cc(C)cc3C)c(Cl)cn12` [Example 295, 6-Chloro-2-ethyl-7-(2,4,6-trimethylphenyl)-7H-imidazo[1,2-a]imidazole-3-carboxylic acid N,N-diallylamide], the Ki was below 1 µM.

Turning to `CCCN(CC1CC1)C(=O)c1c(CC)nc2n(-c3c(C)cc(C)cc3C)c3ccc(F)cc3n12` [Example 144, 2-Ethyl-5-fluoro-8-(2,4,6-trimethyl-phenyl)-8H-1,3a,8-triaza-cyclopenta[a]indene-3-carboxylic acid cyclopropylmethyl-propyl-amide], the Ki was below 0.1 µM.

With `CCCN(Cc1cccc(F)c1)Cc1c(C(F)(F)F)nc2n1CCCN2c1c(C)cc(C)cc1Cl` [Example 134, [8-(2-Chloro-4,6-dimethyl-phenyl)-2-trifluoromethyl-5,6,7,8-tetrahydro-imidazo[1,2-a]pyrimidin-3-ylmethyl]-(3-fluoro-benzyl)-propyl-amine], the Ki was below 1 µM.

On to `CCCN(Cc1c(C(F)(F)F)nc2n1CCCN2c1c(C)cc(C)cc1Cl)CC(F)(F)C(F)(F)F` [Example 117, [8-(2-Chloro-4,6-dimethyl-phenyl)-2-trifluoromethyl-5,6,7,8-tetrahydro-imidazo[1,2-a]pyrimidin-3-ylmethyl]-(2,2,3,3,3-pentafluoro-propyl)-propyl-amine], for which the Ki is below 1 µM.

Regarding `CCCN(Cc1ccc(F)cc1)Cc1c(C(F)(F)F)nc2n1CCCN2c1c(C)cc(C)cc1Cl` [Example 132, [8-(2-Chloro-4,6-dimethyl-phenyl)-2-trifluoromethyl-5,6,7,8-tetrahydro-imidazo[1,2-a]pyrimidin-3-ylmethyl]-(4-fluoro-benzyl)-propyl-amine], the Ki is below 1 µM.

Turning to `CCCN(Cc1c(C(F)(F)F)nc2n(-c3c(C)cc(C)cc3C)c3ccccc3n12)CC1CC1` [Example 148, Cyclopropylmethyl-propyl-[2-trifluoromethyl-8-(2,4,6-trimethyl-phenyl)-8H-1,3a,8-triaza-cyclopenta[α]inden-3-ylmethyl]-amine], the Ki is below 0.1 µM.

With `FC(F)(F)CN(Cc1c(C(F)(F)F)nc2n(-c3ccc(Cl)cc3Cl)c3ccccc3n12)CC1CC1` [Example 179, Cyclopropylmethyl-[8-(2,4-dichloro-phenyl)-2-trifluoromethyl-8H-1,3a,8-triaza-cyclopenta[α]inden-3-ylmethyl]-(2,2,2-trifluoro-ethyl)-amine], the Ki is below 1 µM.

Regarding `CCCCN(C)Cc1c(C(F)(F)F)nc2n1CCCN2c1c(C)cc(C)cc1C` [Example 69, Butyl-methyl-[2-trifluoromethyl-8-(2,4,6-trimethyl-phenyl)-5,6,7,8-tetrahydro-imidazo[1,2-a]pyrimidin-3-ylmethyl]-amine], the Ki was below 1 µM.

With `CCc1nc2n(c1C(=O)N(CCC(F)(F)F)CC1CC1)CCN2c1c(C)cc(C)cc1Cl` [Example 29, 7-(2-Chloro-4,6-dimethyl-phenyl)-2-ethyl-6,7-dihydro-5H-imidazo[1,2 a]imidazole-3-carboxylic acid cyclopropylmethyl-(3,3,3-trifluoro-propyl)-amide], the Ki is below 1 µM.

On to `CCc1nc2n(c1C(=O)N(CC1CC1)CC(F)(F)C(F)(F)F)CCN2c1ccc(C(C)C)cc1Br` [Example 37, 7-(2-Bromo-4-isopropyl-phenyl)-2-ethyl-6,7-dihydro-5H-imidazo[1,2-a]imidazole-3-carboxylic acid cyclopropylmethyl-(2,2,3,3,3-pentafluoro-propyl)-amide], for which the Ki was below 1 µM.

As to `Cc1cc(C)c(N2CCCn3c2nc(C(F)(F)F)c3CN(CCC(F)(F)F)Cc2ccccc2)c(Cl)c1` [Example 125, Benzyl-[8-(2-chloro-4,6-dimethyl-phenyl)-2-trifluoromethyl-5,6,7,8-tetrahydro-imidazo[1,2-a]pyrimidin-3-ylmethyl]-(3,3,3-trifluoro-propyl)-amine], the Ki is below 1 µM.

In the case of `Cc1cc(C)c(-n2c(Cl)cn3c(CN4CCSCC4)c(C(F)(F)F)nc23)c(C)c1` [Example 306, 2-Chloro-5-thiomorpholin-4-ylmethyl-6-trifluoromethyl-1-(2,4,6-trimethyl-phenyl)-1H-imidazo[1,2-a]imidazole], the Ki is below 1 µM.

Regarding `CCCN(CCC)Cc1c(C(F)(F)F)nc2n1CCCN2c1c(C)cc(C)cc1C` [Example 68, Dipropyl-[2-trifluoromethyl-8-(2,4,6-trimethyl-phenyl)-5,6,7,8-tetrahydro-imidazo[1,2-a]pyrimidin-3-ylmethyl]-amine], the Ki was below 1 µM.

Consider `CCc1nc2n(c1C(=O)N(CCC(F)(F)F)CC1CC1)CCN2c1ccc(C(C)C)cc1Br` [Example 39, 7-(2-Bromo-4-isopropyl-phenyl)-2-ethyl-6,7-dihydro-5H-imidazo[1,2-a]imidazole-3-carboxylic acid cyclopropylmethyl-(3,3,3-trifluoro-propyl)-amide], for which the Ki was below 10 µM.

For `CCN(Cc1c(C(F)(F)F)nc2n1CCCN2c1c(C)cc(C)cc1C)CC1CC1` [Example 75, Cyclopropylmethyl-ethyl-[2-trifluoromethyl-8-(2,4,6-trimethyl-phenyl)-5,6,7,8-tetrahydro-imidazo[1,2-a]pyrimidin-3-ylmethyl]-amine], the Ki is below 0.1 µM.

Take `CCCN(CCC)Cc1c(C(F)(F)F)nc2n1CCCN2c1c(C)cc(C)cc1Cl` [Example 109, [8-(2-Chloro-4,6-dimethyl-phenyl)-2-trifluoromethyl-5,6,7,8-tetrahydro-imidazo[1,2-a]pyrimidin-3-ylmethyl]-dipropyl-amine]: the Ki is below 1 µM.

For `CCc1nc2n(c1C(=O)N(CCC(F)(F)F)Cc1cccc(F)c1)CCN2c1c(C)cc(C)cc1C` [Example 24, 2-Ethyl-7-(2,4,6-trimethyl-phenyl)-6,7-dihydro-5H-imidazo[1,2-a]imidazole-3-carboxylic acid (3-fluoro-benzyl)-(3,3,3-trifluoro-propyl)-amide], the Ki was below 10 µM.

Take `CCCN(Cc1c(C(F)(F)F)nc2n1CCCN2c1c(C)cc(C)cc1Cl)CC1CCC1` [Example 111, [8-(2-Chloro-4,6-dimethyl-phenyl)-2-trifluoromethyl-5,6,7,8-tetrahydro-imidazo[1,2-a]pyrimidin-3-ylmethyl]-cyclobutylmethyl-propyl-amine]: the Ki is below 1 µM.

For the molecule `Cc1cc(C)c(-n2c3ncccc3n3c(CN(CCC(F)(F)F)Cc4ccccc4)c(C(F)(F)F)nc23)c(C)c1` [Example 227, Benzyl-[2-trifluoromethyl-8-(2,4,6-trimethyl-phenyl)-8H-1,3a,7,8-tetraaza-cyclopenta[α]inden-3-ylmethyl]-(3,3,3-trifluoro-propyl)-amine], the Ki is below 1 µM.
